US7153977B2, “Ligands and methods for preparing same” (National University of Singapore, priority 2000, dated 2006)
Read-outs that look alike come from different tables or passages of the source. Each block holds one compound with its values, some of them ahead of it.

Experiments:
[1] = molecular target: T1, es nucleoside transporter (human HL-60 promyelocytic leukemia plasma membranes) (Homo sapiens, UniProt Q99808); test: 3H-NBMPR binding to HL-60 plasma membranes; set-up: Bmax of 3H-NBMPR binding in presence of CrMCC: unit not given here; conditions: for IC50: 5 min pretreatment, 5 nM 3H-NBMPR 30 min, read-out: IC50 of inhibition of specific 3H-NBMPR binding
T1 sequence (Q99808 1-456): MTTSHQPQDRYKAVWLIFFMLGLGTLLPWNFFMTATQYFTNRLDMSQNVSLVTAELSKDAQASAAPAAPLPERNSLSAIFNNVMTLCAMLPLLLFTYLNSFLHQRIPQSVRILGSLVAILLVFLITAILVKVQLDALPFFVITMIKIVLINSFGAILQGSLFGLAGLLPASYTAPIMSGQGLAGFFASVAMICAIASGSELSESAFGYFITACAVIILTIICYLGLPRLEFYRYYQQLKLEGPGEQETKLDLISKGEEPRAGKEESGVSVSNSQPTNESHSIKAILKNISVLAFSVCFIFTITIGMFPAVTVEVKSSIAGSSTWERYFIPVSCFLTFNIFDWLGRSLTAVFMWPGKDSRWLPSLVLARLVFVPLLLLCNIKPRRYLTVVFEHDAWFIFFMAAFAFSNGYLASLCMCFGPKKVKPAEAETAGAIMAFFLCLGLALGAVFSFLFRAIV

HL-60 cells = test: Growth of HL-60 cells; conditions: 3 days of exposure; for effect on HL-60 cell growth: concentrations as high as 100 μM
[2] = test system: es nucleoside transporter (human HL-60 promyelocytic leukemia plasma membranes); test: 3H-CrMCC binding to HL-60 plasma membranes
[3] = molecular target: 5-HT receptor (3H-5-HT high and low affinity binding sites of murine brain membranes); test: Inhibition of 3H-5-HT binding to murine brain membranes; conditions: 5 min pretreatment, 5 nM 3H-5-HT 30 min
Procedure: (§1) Purified murine brain membranes suspended in reaction buffer (0.13 M NaCl, 0.02 M NaHCO3, pH 7.0) were pretreated with graded concentrations of LBT3001 (▪), LBT3002 (□), LBT3004 (∘), and LBT3005 (●) for 5 min prior exposure to ^3H-5-HT (5 nM final concentration) for additional 30 min. The reaction was terminated by membrane vacuum filtration method. […] The results were plotted against control binding determined in the absence of inhibitors.

[4] = test system: T2, 5-HT receptor (3H-5-HT high and low affinity binding sites of murine brain membranes); test: as above; conditions: for IC50: 5 min pretreatment, 5 nM 3H-5-HT 30 min
T2 construct: other: 5 min pretreatment, 5 nM 3H-5-HT 30 min
Procedure: as §1

[5] = molecular target: T3, es transport system in murine EL-4 cells (Mus musculus, UniProt Q9JIM1); test: NEM inhibition of 3H-uridine transport in EL-4 cells (only es)
T3 sequence (Q9JIM1 1-460): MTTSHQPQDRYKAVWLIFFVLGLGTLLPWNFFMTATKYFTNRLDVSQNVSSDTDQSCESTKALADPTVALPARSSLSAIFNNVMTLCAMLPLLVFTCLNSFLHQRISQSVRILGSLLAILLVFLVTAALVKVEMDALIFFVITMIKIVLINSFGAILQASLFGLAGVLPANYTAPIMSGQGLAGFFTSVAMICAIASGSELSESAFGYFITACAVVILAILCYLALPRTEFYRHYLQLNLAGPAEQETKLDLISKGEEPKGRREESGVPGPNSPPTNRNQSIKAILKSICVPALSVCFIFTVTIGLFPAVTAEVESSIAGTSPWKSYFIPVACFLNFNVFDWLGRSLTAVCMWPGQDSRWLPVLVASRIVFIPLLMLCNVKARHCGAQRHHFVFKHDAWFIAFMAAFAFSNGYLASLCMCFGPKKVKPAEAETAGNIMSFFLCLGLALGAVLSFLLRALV

[6] = molecular target: T4, ei transport system in rat Morris 7777 cells (Rattus norvegicus, UniProt O54699); test: NEM inhibition of 3H-uridine transport in Morris 7777 cells (only ei)
T4 sequence (O54699 1-456): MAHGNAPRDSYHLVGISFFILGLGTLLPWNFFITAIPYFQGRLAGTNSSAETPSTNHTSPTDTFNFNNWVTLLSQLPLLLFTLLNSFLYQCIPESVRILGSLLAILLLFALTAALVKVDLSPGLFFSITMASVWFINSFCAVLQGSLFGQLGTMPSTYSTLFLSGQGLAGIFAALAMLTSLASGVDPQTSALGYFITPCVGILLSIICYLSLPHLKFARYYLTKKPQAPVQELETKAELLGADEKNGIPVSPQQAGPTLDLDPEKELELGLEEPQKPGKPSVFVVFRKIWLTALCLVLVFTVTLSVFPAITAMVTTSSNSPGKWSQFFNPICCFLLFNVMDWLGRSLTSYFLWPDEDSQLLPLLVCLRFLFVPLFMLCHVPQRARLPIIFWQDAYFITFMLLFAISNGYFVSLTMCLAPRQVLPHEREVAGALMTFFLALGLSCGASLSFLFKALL

[7] = Storage stability of lyophilized CrMCC; assay type: physicochemical; conditions: −20° C. in a desiccator
[8] = Hydrophobicity on C18 reversed-phase column; assay type: physicochemical; conditions: compared with cytidine and SMCC
Procedure: N-Succinimidyl 4-[N-maleimidomethyl]cyclohexane-1-carboxylate (SMCC) and cytidine were dissolved in anhydrous dimethysulfoxide (DMSO) separately prior reaction. The reaction started when these two reagents were mixed at room temperature and shielded from light. The molar concentration ratio of SMCC:cytidine in the mixture was 0.10 M:0.15 M with pH 7.5–8.0 in the reaction system. Within 4 hrs, CrMCC was found in the reaction mixture and can be separated from cytidine and SMCC by a C18 reversed-phase column (Resource RPC, Pharmacia) operated on a HPLC (AKTA Purifier, Pharmacia) using the absorbance wavelength of 300 nm. Cytidine was eluted by 100% water and CrMCC and SMCC were eluted by 15% acetonitrile in water with the flow rate 1.5 ml/min. […] Formation of CrMCC reached its near maximum after 48 hrs of reaction between SMCC and cytidine at 22–24° C. (FIG. 4). The area under the peak was calculated using a computer program UNICORN (version 2.0).

es transporter protein = molecular target: T5, es transporter protein (Mus musculus, UniProt Q9JIM1); conditions: Lee et al. (1995), cited from earlier work
T5 sequence (Q9JIM1 1-460): T3 sequence (Q9JIM1 1-460)

[9] = molecular target: T6, es nucleoside transporter (Homo sapiens, UniProt Q99808); conditions: known from the art; cited from earlier work
T6 sequence (Q99808 1-456): T1 sequence (Q99808 1-456)

[10] = 1 mM physiological nucleoside, 30 μM 3H-CrMCC

- IC50 ([1]; HL-60 plasma membranes): 100 µM
- IC50 (HL-60 cells; read-out: IC50 on cell growth, HL-60 cells): < 0.5 µM
Compound: O=C(ON1C(=O)CCC1=O)C1CCC(CN2C(=O)C=CC2=O)CC1 (stereo not drawn) [SMCC, N-Succinimidyl 4-[N-maleimidomethyl]cyclohexane-1-carboxylate, reference compound]

- inhibition of 3H-CrMCC binding [2, 10]: failed to inhibit
Compound: OC[C@H]1O[C@@H](n2cnc3c(O)ncnc32)[C@H](O)[C@@H]1O [inosine]

- IC50 [3]: ~50 µM
- IC50 [4]: ~1 nM
Compound: O=C1C=CC(=O)N1CCc1c[nH]c2ccc(O)cc12 [LBT3001, 1-[2-(5-hydroxy-1H-indol-3-yl)-ethyl]-pyrrole-2,5-dione]
- efficacy as irreversible binding compounds [4]: demonstrated efficacy as irreversible binding compounds

- inhibition of 3H-CrMCC binding ([2]; 1 mM NEM, 30 μM 3H-CrMCC): as effective as 0.5 mM of CrMCC
- IC50 [5]: ~100 µM
- IC50 [6]: ~1500 µM
Compound: CCN1C(=O)C=CC1=O [NEM, N-Ethylmaleimide]

Compound: 1-[[4-[(4-amino-1-β-D-ribofuranosyl-2(1H)-pyrimidione)carbonyl]cyclohexyl]methyl]-1H-pyrrole-2,5-dione [CrMCC]
- Bmax of 3H-NBMPR binding in presence of CrMCC ([1]; HL-60 membranes pretreated with 10 μM CrMCC 5 min): 0.59±0.01
- Bmax of 3H-NBMPR binding in presence of CrMCC ([1]; HL-60 membranes pretreated with 50 μM CrMCC 5 min): 0.30±0.01
- IC50 ([1]; HL-60 plasma membranes): 10 µM
- Ki ([1]; HL-60 plasma membranes, read-out: Ki (calculated) for 3H-NBMPR binding): 1 µM
- mode of inhibition of 3H-NBMPR binding ([1]; double reciprocal plot): non-competitive inhibition
- stability of activity on storage [7]: stable for at least three months
- hydrophobicity [8]: greater than that of cytidine but is less than that of SMCC
- effect on HL-60 cell growth (HL-60 cells): little or no effect
- time needed to achieve maximum binding ([2]; 30 μM 3H-CrMCC): ≥ 5 min
- dissociation from binding sites after 20-fold dilution ([2]; 30 μM radioligand 10 min, then 20-fold dilution, room temperature, up to at least 60 min): little or no dissociation
- pH below which ligand-receptor complexes began to break down ([2]; buffers pH 0.85 to 7.5): below 3.5
- stability of 3H-CrMCC-receptor complexes ([2]; physiological pH, 20-fold dilution in buffer): very stable
- Kd ([2]; read-out: Kd of high affinity component, 3 to 800 μM 3H-CrMCC, 10 min): 23.8 ± 2.2 µM

- IC50 [3]: ~200 µM
- IC50 [4]: ~0.03 nM
Compound: O=C(CCCN1C(=O)C=CC1=O)NCCc1c[nH]c2ccc(O)cc12 [LBT3002, 4-(2,5-dioxo-2,5-dihydro-pyrrol-1-yl)-N-[2-(5-hydroxyl-1H-indol-3-yl)-ethyl]-butyramide]
- efficacy as irreversible binding compounds [4]: demonstrated efficacy as irreversible binding compounds

- inhibition of 3H-CrMCC binding [2, 10]: failed to inhibit
Compound: Nc1ncnc2c1ncn2[C@@H]1O[C@H](CO)[C@@H](O)[C@H]1O [adenosine]

- level of binding to HL-60 plasma membranes ([2]; 30 μM radioligand): low
- displacement of 3H-CrMCC from its binding sites ([2]; 1 mM in the dilution medium): failed to displace
- inhibition of 3H-CrMCC binding [2, 10]: failed to inhibit
Compound: Nc1ccn([C@@H]2O[C@H](CO)[C@@H](O)[C@H]2O)c(=O)n1 [cytidine]
- effect on HL-60 cell growth (HL-60 cells): little or no effect

- inhibition of 3H-CrMCC binding ([2]; 20 μM es nucleoside transport inhibitor, 30 μM 3H-CrMCC): failed to inhibit
Compound: OCCN(CCO)c1nc(N2CCCCC2)c2nc(N(CCO)CCO)nc(N3CCCCC3)c2n1 [dipyridamole]
- protection of sulfhydryl group from NEM modification (es transporter protein; at 30 μM): incapable of protecting

- IC50 [3]: ~50 µM
- IC50 [4]: ~200 nM
Compound: O=C(CCN1C(=O)C=CC1=O)NCCc1c[nH]c2ccc(O)cc12 [LBT3004, 3-(2,5-dioxo-2,5-dihydro-pyrrol-1-yl)-N-[2-(5-hydroxyl-1H-indol-3-yl)-ethyl]-propionamide]
- efficacy as irreversible binding compounds [4]: demonstrated efficacy as irreversible binding compounds

- IC50 [3]: 300 µM
- IC50 [4]: 500 nM
Compound: O=C(NCCc1c[nH]c2ccc(O)cc12)C1CCC(CN2C(=O)C=CC2=O)CC1 (stereo not drawn) [LBT3005, 4-(2,5-dioxo-2,5-dihydro-pyrrol-1-yl-methyl)-cyclohexane carboxylic acid [2-(5-hydroxy-1H-indol-3-yl)-ethyl]-amide]
- efficacy as irreversible binding compounds [4]: demonstrated efficacy as irreversible binding compounds

Compound: O=c1ccn([C@@H]2O[C@H](CO)[C@@H](O)[C@H]2O)c(=O)[nH]1 [uridine]
- protection of sulfhydryl group from NEM modification (es transporter protein; at 10 mM): incapable of protecting
- inhibition of 3H-CrMCC binding [2, 10]: failed to inhibit

Compound: COc1cc(C(=O)OCCCN2CCCN(CCCOC(=O)c3cc(OC)c(OC)c(OC)c3)CC2)cc(OC)c1OC [dilazep]
- protection of sulfhydryl group from NEM modification (es transporter protein; at 30 μM): incapable of protecting
- rate of binding of reversible antagonists [9]: rapid and mostly completed within first minute of incubation
